Experiments:
A427 cells = assay: Cytotoxicity assay in A427 cell line (resazurin); assay type: cell-based; conditions: Homo sapiens, A-427, A427 lung epithelial cell line, 72 hr incubation, inhibition of proliferation
Experimental: A427 (HTB-53; ATCC), a lung epithelial cell line, was seeded in medium (MEM, 41090101; Gibco) at a cell count of 1500 cells per 100 μL per well in a 96 well edge plate (167425; ThermoFisher). Cells were allowed to grow at 37° C. for 24 hr in 5% CO2 environment (culture conditions) in a Nuaire incubator (humidified). Serially diluted test compounds (100 μL) within the desired testing concentration ranges were added to the culture plate and the cells were further incubated in culture conditions for 72 hr. The experiment was terminated at the designated incubation time by replacing the medium with 100 μL of 1 mM of resazurin (R7017; Sigma) prepared in culture medium, and the plates were further incubated in culture conditions for 4-6 hr. Fluorescence was recorded using a multimodal plate reader (Biotek Synergy Neo) at an excitation wavelength of 535 nm and emission wavelength of 590 nm to obtain relative fluorescence units. Data were analysed as follows: the background fluorescence (blank containing only medium) value was subtracted from each reading and normalized with the vehicle control (DMSO treated cells) to obtain percent survival/proliferation. Percent survival was subtracted from 100 to get the percent inhibition of proliferation which was used to calculate IC50 values. Potency of compounds in other cell lines (such as A549, As-Pc-1, Panc 10.05, A172, U-87 MG) may be determined in an analogous manner.

WEE1 kinase enzyme = target: T1, WEE1 kinase enzyme (Homo sapiens, UniProt P30291); assay: WEE1 IC50 determination, LanthaScreen Terbium Labeled TR-FRET kinase assay; assay type: biochemical; conditions: WEE1 enzyme 1 nM, ATP 10 μM, 1 h
T1 construct: purchased Invitrogen, Life Technologies PR7373A
T1 sequence (P30291 whole entry): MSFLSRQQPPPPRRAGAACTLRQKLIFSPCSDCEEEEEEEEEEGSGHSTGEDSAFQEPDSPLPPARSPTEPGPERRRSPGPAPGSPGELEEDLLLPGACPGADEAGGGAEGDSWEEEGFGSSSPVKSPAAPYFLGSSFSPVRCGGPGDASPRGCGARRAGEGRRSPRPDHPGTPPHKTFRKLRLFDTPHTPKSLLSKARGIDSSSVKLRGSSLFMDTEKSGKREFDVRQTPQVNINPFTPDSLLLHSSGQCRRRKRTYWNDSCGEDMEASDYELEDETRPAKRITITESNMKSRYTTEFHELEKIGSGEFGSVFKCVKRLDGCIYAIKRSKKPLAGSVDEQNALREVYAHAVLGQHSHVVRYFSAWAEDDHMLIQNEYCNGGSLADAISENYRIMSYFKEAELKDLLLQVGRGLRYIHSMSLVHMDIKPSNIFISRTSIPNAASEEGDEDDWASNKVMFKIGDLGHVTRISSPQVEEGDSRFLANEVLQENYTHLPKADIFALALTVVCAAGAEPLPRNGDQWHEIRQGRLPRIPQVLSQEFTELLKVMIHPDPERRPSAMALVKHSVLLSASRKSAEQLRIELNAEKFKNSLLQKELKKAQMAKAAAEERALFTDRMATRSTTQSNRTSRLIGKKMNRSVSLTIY
Experimental: IC50 values of compounds against WEE1 kinase enzyme were determined by LanthaScreen™ Terbium Labeled TR-FRET assay. Kinase assays were performed in 1× kinase buffer (#PV6135, Invitrogen, Life Technologies Grand Island, N.Y.) where total reaction volume was 10 μL in low-volume 384-well plates (#4511, Corning). Serially diluted compounds (3-fold) were incubated with WEE1 Enzyme (1 nM) (#PR7373A, Invitrogen, Life Technologies, Grand Island, N.Y.) for 10 min, and a mixture of ATP (10 μM) (#A1852, Sigma, St. Louis, Mo.) and fluorescent-PolyGT substrate (200 nM) (#PV3610, Invitrogen, Life Technologies, Grand Island, N.Y.) was added and incubated in the dark at room temperature for 1 h. After 1 h, a 10 μL stop solution containing terbium labeled antibody (4 nM) (#PV3529, Invitrogen, Life Technologies Grand Island, N.Y.) and EDTA (#E5134, Sigma, St. Louis, Mo.) (20 mM) in TR-FRET dilution buffer (#PV3574, Invitrogen, Life Technologies, Grand Island, N.Y.) was added. Readings were taken in a Synergy Neo Plate reader (BioTek, Winooski, Vt.) at single excitation of 340 nm and dual emission at 495 nm and 520 nm respectively.
The % activity of test samples was calculated as (Sample−Min)*100/(Max−Min). [Max: DMSO control, complete reaction with enzyme & DMSO and Min: No enzyme & DMSO]. Percent inhibition (100−% activity) was fitted to the “four-parameter logistic model” in XLfit for determination of IC50 values.

[1] = system: phospho-CDC2 (Tyr15) in A427 cells; assay: Phospho-CDC2 (Tyr15) sandwich ELISA in A427 cells; assay type: cell-based; conditions: Homo sapiens, A-427, PathScan Phospho-CDC2 (Tyr15) ELISA, specified time (e.g., 24 hr)
Experimental: Changes in the levels of phospho-CDC2 following treatment of cells with test compounds were assessed by enzyme-linked immunosorbent assay (ELISA). A427 cells were plated in 6-well plates and cultured for 24 hr to approximately 80-90% confluency. Medium was replaced, and the cells were treated with the vehicle control or the test compound at several different concentrations. After incubation of treated cells in cell culture conditions for a specified time (e.g., 24 hr), cells were rinsed with ice-cold PBS and lysed in 1× cell lysis buffer containing protease inhibitors and phosphatase inhibitors. The cells were scraped from the plate with a cell scraper after a brief incubation on ice and transferred to a centrifuge tube, and then subjected to three freeze-thaw cycles in liquid nitrogen and a 37° C. water bath for further lysis. The lysates were centrifuged to pellet cell debris (using, for example, a 10 min centrifugation of 2000×g at 4° C.) and the supernatants transferred to fresh tubes on ice. The protein concentrations of the samples were estimated by the Bradford method or equivalent. The ELISA was carried out with the PathScan® Phospho-CDC2 (Tyr15) Sandwich ELISA Kit (Cat. #7176, Cell Signaling Technology, Danvers, Mass.) according to the manufacturer's instructions.

Compound | IC50 (A427 cells) | IC50 (WEE1 kinase enzyme) | IC50 [1]
CC(C)n1cc(-n2c3nc(Nc4ccc5c(c4)CCNC5)ncc3c(=O)n2C(C)C)cn1 [Compound 1.1, 2-isopropyl-1-(1-isopropyl-1H-pyrazol-4-yl)-6-((1,2,3,4-tetrahydroisoquinolin-6-yl)amino)-1,2-dihydro-3H-pyrazolo[3,4-d]pyrimidin-3-one] | > 30000 nM | 107 nM | 
COCC(C)(C)c1cccc(-n2c3nc(Nc4ccc5c(c4)CNCC5)ncc3c(=O)n2C(C)C)n1 [Compound 1.2, 2-isopropyl-1-(6-(1-methoxy-2-methylpropan-2-yl)pyridin-2-yl)-6-((1,2,3,4-tetrahydroisoquinolin-7-yl)amino)-1,2-dihydro-3H-pyrazolo[3,4-d]pyrimidin-3-one] | 295 nM | 4 nM | 
CC(C)n1c(=O)c2cnc(Nc3ccc4c(c3)CCNC4)nc2n1-c1cccc(C(=O)N(C)C)c1 [Compound 1.3, 3-(2-isopropyl-3-oxo-6-((1,2,3,4-tetrahydroisoquinolin-6-yl)amino)-2,3-dihydro-1H-pyrazolo[3,4-d]pyrimidin-1-yl)-N,N-dimethylbenzamide] | 8160 nM | 2 nM | 
CC(C)n1c(=O)c2cnc(Nc3ccc4c(c3)CNCC4)nc2n1-c1cccc(C(=O)N(C)C)c1 [Compound 1.4, 3-(2-isopropyl-3-oxo-6-((1,2,3,4-tetrahydroisoquinolin-7-yl)amino)-2,3-dihydro-1H-pyrazolo[3,4-d]pyrimidin-1-yl)-N,N-dimethylbenzamide] | 3510 nM | 3 nM | 
CC(C)N1CCc2cc(Nc3ncc4c(=O)n(C(C)C)n(-c5ccnc(C(C)(C)C)c5)c4n3)ccc2C1 [Compound 1.5, 1-(2-(tert-butyl)pyridin-4-yl)-2-isopropyl-6-((2-isopropyl-1,2,3,4-tetrahydroisoquinolin-6-yl)amino)-1,2-dihydro-3H-pyrazolo[3,4-d]pyrimidin-3-one] | 2070 nM | 21 nM | 
CC(C)n1c(=O)c2cnc(Nc3ccc4c(c3)CNCC4)nc2n1-c1ccc(C#N)cc1 [Compound 1.85, 4-(2-isopropyl-3-oxo-6-(1,2,3,4-tetrahydroisoquinolin-7-ylamino)-2,3-dihydro-1H-pyrazolo[3,4-d]pyrimidin-1-yl)benzonitrile] | 1860 nM | 5 nM | 278 nM
CC(C)n1c(=O)c2cnc(Nc3ccc4c(c3)CCNC4)nc2n1-c1ccc(C#N)cc1 [Compound 1.86, 4-(2-isopropyl-3-oxo-6-(1,2,3,4-tetrahydroisoquinolin-6-ylamino)-2,3-dihydro-1H-pyrazolo[3,4-d]pyrimidin-1-yl)benzonitrile] | 1070 nM | 8 nM | 
CC(C)n1c(=O)c2cnc(Nc3ccc4c(c3)CCN(CCCN)C4)nc2n1-c1ccnc(C(C)(C)C)c1 [Compound 1.87, 2,2,2-trifluoroacetaldehyde compound with 6-((2-(3-aminopropyl)-1,2,3,4-tetrahydroisoquinolin-6-yl)amino)-1-(2-(tert-butyl)pyridin-4-yl)-2-isopropyl-1,2-dihydro-3H-pyrazolo[3,4-d]pyrimidin-3-one] |  | 4 nM | 
